From ChEMBL document CHEMBL5104094, “Chemistry, biosynthesis and biological activity of terpenoids and meroterpenoids in bacteria and fungi isolated from different marine habitats” (Eur J Med Chem, 2021)
pIC50: −log10 of the molar value.

System: HCT-116
Assay: Cytotoxicity against human HCT-116 cells assessed as cell growth inhibition by MTT assay
Type: functional, cell-based
Settings: not given
In the case of `CC(C)=CCn1c2ccc(Br)c(=O)c-2nc2ccccc21`, the pIC50 was 7.54.

System: HCT-116
Assay: Cytotoxicity against human HCT-116 cells assessed as cell growth inhibition
Type: functional, cell-based
Settings: not given
Compound `C=C[C@]1(C)C=C2C(=O)C(O)=C3[C@](C)(CO)CC=C[C@]3(C)[C@@]2(O)CC1` has a pIC50 of 4.82. `COC(=O)c1c(C)cc2c(c(C)c1=O)O[C@@]1(C)CC[C@H]3C(C)(C)OC(=O)C[C@@H](OC(C)=O)[C@]3(C)[C@@H]1C2` gave a pIC50 of 4.96. For `COC(=O)c1c(C)cc2c(c(C)c1=O)O[C@@]1(C)CC[C@H]3C(C)(C)OC(=O)C[C@@H](O)[C@]3(C)[C@@H]1C2`, the pIC50 was 4.88. With `C=C[C@]1(C)C=C2C(=O)C(O)=C3[C@](C)(CO)CC[C@@H](O)[C@]3(C)[C@@]2(O)CC1` the pIC50 was 4.28. `C=C[C@]1(C)C=C2C(=O)C(O)=C3C(C)(C)CC[C@@H](O)[C@]3(C)[C@@]2(O)CC1` gave a pIC50 of 4.82. Compound `COC(=O)c1c(C)cc2c(c(C)c1=O)O[C@@]1(C)CC[C@H]3C(C)(C)OC(=O)C=C[C@]3(C)[C@@H]1C2` has a pIC50 of 4.86.

System: HCT-116
Assay: Cytotoxicity against human HCT-116 cells assessed as cell growth inhibition incubated for 72 hrs by CellTiter 96 Aqueous One Solution Cell Proliferation assay
Type: functional, cell-based
Settings: HCT-116, 72 h
Compound `C=C1CC[C@H](Cl)C(C)(C)[C@@H]1C[C@@]12OC(C)(C)[C@H](Cl)C[C@]1(Cl)C(=O)C1=C(C2=O)C(=[N+]=[N-])C(=O)C(C)=C1O` has a pIC50 of 6.30. With `C=C1CC[C@H](Cl)C(C)(C)[C@@H]1C[C@@]12OC(C)(C)[C@H](Cl)C[C@@]1(Cl)C(=O)c1c(cc(O)c(C)c1O)C2=O` the pIC50 was 5.52.

System: MCF7
Assay: Cytotoxicity against human MCF7 cells assessed as cell growth inhibition by MTT assay
Type: functional, cell-based
Settings: not given
For `C=C[C@]1(C)C=C2C(=O)C(O)=C3C(C)(C)CCC[C@]3(C)[C@@]2(O)CC1`, the pIC50 was 4.44. With `C=C[C@]1(C)C=C2C(=O)C(O)=C3C(C)(C)[C@@H](O)CC[C@]3(C)[C@@]2(O)CC1` the pIC50 was 4.59. Compound `C=C[C@]1(C)C=C2C(=O)C(O)=C3C(C)(C)[C@@H](O)CC[C@]3(C)[C@@]2(O)[C@H](O)C1` has a pIC50 of under 4.15. In the case of `C=C[C@@]1(C)CCC2=C([C@H](O)C(=O)[C@@]3(O)C(C)(C)CCC[C@]23C)[C@H]1O`, the pIC50 was under 4.15. Compound `C=C[C@@]1(C)CCC2=C([C@H]1O)[C@H](O)[C@]1(O)OC[C@@]23CCCC(C)(C)[C@@]31O` has a pIC50 of under 4.15.

Molecular target: Tyrosine-protein phosphatase non-receptor type 6 (Homo sapiens, UniProt P29350)
Sequence (P29350 whole entry): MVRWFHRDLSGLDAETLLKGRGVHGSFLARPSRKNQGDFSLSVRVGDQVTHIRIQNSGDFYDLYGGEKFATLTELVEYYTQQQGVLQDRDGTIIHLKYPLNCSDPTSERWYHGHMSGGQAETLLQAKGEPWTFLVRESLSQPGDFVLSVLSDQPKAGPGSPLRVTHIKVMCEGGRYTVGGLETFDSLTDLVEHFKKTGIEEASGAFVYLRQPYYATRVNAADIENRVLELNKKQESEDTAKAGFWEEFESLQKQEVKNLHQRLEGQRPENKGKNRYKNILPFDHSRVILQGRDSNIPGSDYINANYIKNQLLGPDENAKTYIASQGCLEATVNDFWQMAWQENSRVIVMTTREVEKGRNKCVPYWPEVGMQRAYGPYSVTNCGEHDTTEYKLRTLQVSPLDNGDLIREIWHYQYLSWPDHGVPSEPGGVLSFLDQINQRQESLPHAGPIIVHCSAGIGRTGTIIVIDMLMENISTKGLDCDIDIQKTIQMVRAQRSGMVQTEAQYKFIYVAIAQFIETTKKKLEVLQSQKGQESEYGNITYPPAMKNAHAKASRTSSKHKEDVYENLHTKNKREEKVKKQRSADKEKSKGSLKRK
Assay: Inhibition of recombinant human SHP1 expressed in Escherichia coli using pnitrophenyl phosphate as substrate preincubated for 15 mins followed by substrate addition measured after 60 mins by absorbance based assay
Settings: not given
For `COC(=O)[C@@]12C(=O)[C@](C)(O)C(=O)[C@@H](C(C)=C1C)C1[C@]2(C)C[C@@H]2OC(=O)[C@]13CC[C@H](OC(C)=O)C(C)(C)[C@@H]23` (some centres not stated), the pIC50 was 4.66. Work on `COC(=O)[C@]12[C@](C)(C(=O)[C@@]1(C)O)C(C)=C[C@H]1[C@]34CC[C@H](OC(C)=O)C(C)(C)[C@H]3[C@H](C[C@@]12C)OC4=O` yielded a pIC50 of 4.64. For `COC(=O)[C@@]12C(=O)[C@@](C)(O)[C@]1(C)C(C)=C[C@H]1[C@]34CC[C@H](OC(C)=O)C(C)(C)[C@H]3[C@H](C[C@@]12C)OC4=O`, the pIC50 was 4.47.

System: not listed separately
Assay: Inhibition of Influenza virus neuraminidase
Parameters: species or system unidentified influenza virus
Settings: not given
Work on `C=C1[C@@]2(CCC(=O)OC2(C)C)C[C@H](OC(=O)c2ccccc2)[C@@]2(C)[C@@]34C(=O)O[C@@H](C)[C@@]35O[C@@]12[C@@H](OC(C)=O)[C@](C)(OC5=O)C4=O` yielded a pIC50 of 5.86. In the case of `C=C1[C@@]2(CCC(=O)OC2(C)C)C[C@H](OC(=O)/C(C)=C/C)[C@@]2(C)[C@]34C(=C)[C@@]5(C)OC(=O)[C@@]3(O[C@@]12[C@H]5OC(C)=O)[C@H](C)OC4=O`, the pIC50 was 5.86. With `C=C1[C@@]2(CCC(=O)OC2(C)C)CC[C@@]2(C)[C@]34C(=C)[C@@]5(C)OC(=O)[C@@]3(O[C@@]12[C@H]5O)[C@H](C)OC4=O` the pIC50 was 5.86. With `C=C1[C@]23C(=O)O[C@@H](C)[C@@]2(O)C(=O)O[C@@]1(C)[C@H](OC(C)=O)C1=C(C)[C@@]2(C=CC(=O)OC2(C)C)CC[C@]13C` the pIC50 was 5.86. Compound `C=C1[C@]23C(=O)O[C@@H](C)[C@@]2(O)C(=O)O[C@@]1(C)[C@H](O)C1=C(C)[C@@]2(C=CC(=O)OC2(C)C)CC[C@]13C` has a pIC50 of 5.86. `C=C1C23O[C@@]45C(=O)O[C@](C)(C(=C)[C@@]4(C(=O)O[C@H]5C)[C@]2(C)[C@@H](OC(=O)c2ccccc2)C[C@]12CCC(=O)OC2(C)C)[C@@H]3OC(C)=O` gave a pIC50 of 5.86. Work on `CCOC(=O)C1=C[C@@H](OC(CC)CC)[C@H](NC(C)=O)[C@@H](N)C1` [OSELTAMIVIR] yielded a pIC50 of 6.00.

Molecular target: T1, M-phase inducer phosphatase 2 (Homo sapiens, UniProt P30305)
T1 sequence (P30305 whole entry): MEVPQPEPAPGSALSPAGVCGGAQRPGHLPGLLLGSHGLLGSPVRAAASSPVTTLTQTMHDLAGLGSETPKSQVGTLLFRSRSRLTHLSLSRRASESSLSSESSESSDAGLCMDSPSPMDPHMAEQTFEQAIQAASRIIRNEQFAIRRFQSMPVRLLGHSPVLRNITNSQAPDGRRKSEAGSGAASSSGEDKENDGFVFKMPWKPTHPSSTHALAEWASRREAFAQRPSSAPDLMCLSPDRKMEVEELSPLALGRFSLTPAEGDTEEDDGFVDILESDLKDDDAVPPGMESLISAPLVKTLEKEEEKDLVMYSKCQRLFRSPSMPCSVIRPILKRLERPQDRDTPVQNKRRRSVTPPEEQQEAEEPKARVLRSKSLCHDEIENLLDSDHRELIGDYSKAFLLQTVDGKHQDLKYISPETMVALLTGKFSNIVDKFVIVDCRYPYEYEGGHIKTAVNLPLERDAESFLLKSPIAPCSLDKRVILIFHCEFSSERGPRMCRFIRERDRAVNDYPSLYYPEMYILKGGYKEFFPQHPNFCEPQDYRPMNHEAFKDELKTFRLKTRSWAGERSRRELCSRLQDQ
Assay: Inhibition of recombinant human CDC25B expressed in Escherichia coli using pnitrophenyl phosphate as substrate preincubated for 15 mins followed by substrate addition measured after 60 mins by absorbance based assay
Settings: not given
`COC(=O)[C@@]12C(=O)[C@](C)(O)C(=O)[C@@H](C(C)=C1C)C1[C@]2(C)C[C@@H]2OC(=O)[C@]13CC[C@H](OC(C)=O)C(C)(C)[C@@H]23` (some centres not stated) showed a pIC50 of 4.70. `COC(=O)[C@]12[C@](C)(C(=O)[C@@]1(C)O)C(C)=C[C@H]1[C@]34CC[C@H](OC(C)=O)C(C)(C)[C@H]3[C@H](C[C@@]12C)OC4=O` gave a pIC50 of 4.74. Work on `COC(=O)[C@@]12C(=O)[C@@](C)(O)[C@]1(C)C(C)=C[C@H]1[C@]34CC[C@H](OC(C)=O)C(C)(C)[C@H]3[C@H](C[C@@]12C)OC4=O` yielded a pIC50 of 4.72.
